Assays:
[1] = biological target: T1, CDK12 (nuclear staining in CAL-120 cells) (Homo sapiens, UniProt Q9NYV4); test: CDK12 nuclear protein level: immunofluorescence/high content analysis (CAL-120); assay type: cell-based; settings: for DC50: CAL-120 cells, 24 h, immunofluorescence, 50% reduction of nuclear CDK12 staining intensity, median, read-out: CDK12 degradation IF, DC50- [mol/l] (median); for (IC50 CDK12 high ATP) to (Degradation DC50 CDK12) ratio: ratio of IC50 CDK12 high ATP kinase assay to DC50 CDK12 degradation (IF, CAL-120)
T1 construct: endogenous in cells; host or cells: CAL-120 human breast cancer cells (DSMZ ACC 459)
Outline: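 CAL-120 cells were treated with compound for 24 h at 37 °C, fixed with PFA and immunostained for CDK12. Nuclear CDK12 intensity was quantified by automated image analysis and normalized to DMSO and control. DC50 is the concentration giving 50% reduction of nuclear staining.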

[2] = system: BRCA1 mRNA expression in MDA-MB-231 cells; test: qRT-PCR assay: BRCA1 mRNA expression in MDA-MB-231; assay type: cell-based, human; settings: Homo sapiens, MDA-MB-231, Inhibition of BRCA1 mRNA expression in MDA-MB-231 cells; median; read-out: RTqPCR-MDA-MB-231, IC50, BRCA1 (median)
Outline: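 GAPDH-normalised RT-qPCR measures the transcript after 24 h continuous compound treatment of cells seeded at 200,000/well one day earlier.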

[3] = biological target: T2, CYCLIN K (nuclear staining in CAL-120 cells) (Homo sapiens, UniProt O75909); test: CYCLIN K nuclear protein level: immunofluorescence high content analysis (CAL-120); assay type: cell-based; settings: 24 h, 50% reduction of nuclear CCNK staining intensity, median, read-out: CYCLIN K degradation IF, DC50-[mol/l] (median)
T2 construct: endogenous in cells; host or cells: CAL-120 human breast cancer cells (DSMZ ACC 459)
Outline: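 CAL-120 breast cancer cells treated in dose-response for 24 h at 37 °C, PFA-fixed and immunostained for cyclin K with Hoechst counterstain. Confocal imaging quantified nuclear intensity; DC50 is the concentration giving 50% reduction of nuclear CCNK staining, normalized to DMSO and control.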

[4] = system: CAL-120, human breast adenocarcinoma cells; test: Proliferation assay CAL-120 (crystal violet, 4 days); assay type: cell-based; settings: Homo sapiens, CAL-120, 96 h, CAL-120 cells, median, read-out: Prolif-CAL-120, IC50-[mol/l] (median)
Outline: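 Following a 24 h attachment in 10% fetal calf serum medium, cells receive test substance over 0.01-10 µmol/L for 4 days. Dye retained by fixed cells is eluted and read at 595 nm; cell number change is referenced to day-0 and untreated wells.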

T2 sequence (O75909 whole entry): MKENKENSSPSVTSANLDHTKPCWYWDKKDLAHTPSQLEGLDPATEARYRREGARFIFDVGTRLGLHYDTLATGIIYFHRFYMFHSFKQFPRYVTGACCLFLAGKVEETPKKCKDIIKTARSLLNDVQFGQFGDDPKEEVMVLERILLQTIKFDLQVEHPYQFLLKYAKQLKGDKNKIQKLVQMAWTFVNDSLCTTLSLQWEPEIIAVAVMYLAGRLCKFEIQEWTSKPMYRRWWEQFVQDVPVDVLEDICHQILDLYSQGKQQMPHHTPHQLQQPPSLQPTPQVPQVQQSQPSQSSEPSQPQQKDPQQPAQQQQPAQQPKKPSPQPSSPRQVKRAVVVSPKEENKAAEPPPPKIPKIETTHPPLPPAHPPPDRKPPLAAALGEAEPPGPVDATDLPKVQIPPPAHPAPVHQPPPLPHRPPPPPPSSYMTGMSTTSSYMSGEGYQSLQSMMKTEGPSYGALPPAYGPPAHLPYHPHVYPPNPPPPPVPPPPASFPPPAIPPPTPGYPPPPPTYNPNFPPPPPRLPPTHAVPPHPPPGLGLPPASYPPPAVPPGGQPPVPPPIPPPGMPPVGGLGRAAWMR
T2 sequence (Q9NYV4 whole entry partner): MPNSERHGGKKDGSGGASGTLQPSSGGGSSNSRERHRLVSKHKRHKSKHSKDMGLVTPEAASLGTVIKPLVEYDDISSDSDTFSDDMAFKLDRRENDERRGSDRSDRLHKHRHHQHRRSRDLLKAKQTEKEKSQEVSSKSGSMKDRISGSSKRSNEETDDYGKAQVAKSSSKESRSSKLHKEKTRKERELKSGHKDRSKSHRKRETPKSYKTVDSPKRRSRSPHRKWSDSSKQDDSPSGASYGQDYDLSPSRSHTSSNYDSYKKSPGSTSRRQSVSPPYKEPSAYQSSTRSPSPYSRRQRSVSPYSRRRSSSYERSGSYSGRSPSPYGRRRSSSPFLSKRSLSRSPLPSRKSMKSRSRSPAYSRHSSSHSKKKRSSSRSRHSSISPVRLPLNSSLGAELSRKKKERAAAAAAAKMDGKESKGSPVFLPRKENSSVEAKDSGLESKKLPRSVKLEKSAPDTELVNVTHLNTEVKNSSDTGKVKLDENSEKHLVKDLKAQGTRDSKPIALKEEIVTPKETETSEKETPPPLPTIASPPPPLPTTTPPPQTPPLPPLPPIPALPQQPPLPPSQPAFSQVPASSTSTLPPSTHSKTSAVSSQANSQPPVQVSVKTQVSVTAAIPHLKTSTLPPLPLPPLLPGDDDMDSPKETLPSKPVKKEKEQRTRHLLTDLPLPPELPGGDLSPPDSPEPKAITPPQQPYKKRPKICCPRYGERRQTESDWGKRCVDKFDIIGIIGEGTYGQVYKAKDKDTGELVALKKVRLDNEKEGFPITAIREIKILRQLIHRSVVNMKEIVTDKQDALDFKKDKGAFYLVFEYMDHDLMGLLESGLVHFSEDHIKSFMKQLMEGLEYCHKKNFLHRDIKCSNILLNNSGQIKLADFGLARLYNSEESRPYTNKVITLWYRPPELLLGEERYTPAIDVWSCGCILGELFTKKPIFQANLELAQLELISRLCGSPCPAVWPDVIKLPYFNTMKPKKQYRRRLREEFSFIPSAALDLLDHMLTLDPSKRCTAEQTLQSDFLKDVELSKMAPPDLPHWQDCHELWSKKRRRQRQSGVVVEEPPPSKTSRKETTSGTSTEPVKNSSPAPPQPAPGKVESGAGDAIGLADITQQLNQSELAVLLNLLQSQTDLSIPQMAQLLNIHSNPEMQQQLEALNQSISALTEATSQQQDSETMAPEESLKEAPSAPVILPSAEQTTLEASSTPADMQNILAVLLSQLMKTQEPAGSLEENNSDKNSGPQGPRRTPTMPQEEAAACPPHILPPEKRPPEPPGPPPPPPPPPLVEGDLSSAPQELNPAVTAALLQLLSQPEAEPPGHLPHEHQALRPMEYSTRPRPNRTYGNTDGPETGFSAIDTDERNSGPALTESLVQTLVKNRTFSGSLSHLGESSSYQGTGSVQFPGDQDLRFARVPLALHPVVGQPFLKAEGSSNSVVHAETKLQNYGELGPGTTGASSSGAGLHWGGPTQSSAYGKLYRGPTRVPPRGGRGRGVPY
T1 sequence (Q9NYV4 whole entry): as the sequence (Q9NYV4 whole entry partner) above
T1 sequence (O75909 whole entry partner): as the sequence (O75909 whole entry) above

Row | SMILES | DC50 [1] | (IC50 CDK12 high ATP) to (Degradation DC50 CDK12) ratio [1] | IC50 [2] | DC50 [3] | IC50 [4]
1 | COc1cccc(-c2nnc(CNc3nc(N4CCOCC4)nc4c(Br)cnn34)[nH]2)c1 [Example 50, 8-bromo-N-{[5-(3-methoxyphenyl)-4H-1,2,4-triazol-3-yl]methyl}-2-(morpholin-4-yl)pyrazolo[1,5-a][1,3,5]triazin-4-amine] | 12.5 nM | 224 | 18.2 nM | 4.22 nM | 29.5 nM
2 | OC[C@@H]1CCCCN1c1nc(NCc2nc3ccccc3[nH]2)n2ncc(Br)c2n1 [Example 59, [(2S)-1-(4-{[(1H-benzimidazol-2-yl)methyl]amino}-8-bromopyrazolo[1,5-a][1,3,5]triazin-2-yl)piperidin-2-yl]methanol] | 5.26 nM | 104 | 30.5 nM | 2.85 nM | 12.5 nM
3 | Fc1ccc2[nH]c(CNc3nc(N4CCOCC4)nc4c(-c5cncs5)cnn34)nc2c1F.O=C(O)C(F)(F)F [Example 442, trifluoroacetic acid N-[(4,5-difluoro-1H-benzimidazol-2-yl)methyl]-2-(morpholin-4-yl)-8-(1,3-thiazol-5-yl)pyrazolo[1,5-a][1,3,5]triazin-4-amine] | 4.68 nM | 125 | 0.738 nM | 0.385 nM | 2.61 nM
4 | O=C(O)C(F)(F)F.c1ccc2[nH]c(CNc3nc(N4CCOCC4)nc4c(-c5cncs5)cnn34)nc2c1 [Example 441, trifluoroacetic acid-N-[(1H-benzimidazol-2-yl)methyl]-2-(morpholin-4-yl)-8-(1,3-thiazol-5-yl)pyrazolo[1,5-a][1,3,5]triazin-4-amine (1/1)] | 6.18 nM | 676 | 3.39 nM | 2.25 nM | 7.69 nM
5 | COc1ccccc1-c1nnc(CNc2nc(N3CCOCC3)nc3c(Br)cnn23)[nH]1 [Example 61, 8-bromo-N-{[5-(2-methoxyphenyl)-4H-1,2,4-triazol-3-yl]methyl}-2-(morpholin-4-yl)pyrazolo[1,5-a][1,3,5]triazin-4-amine] | 5.11 nM | >3913 | 9.54 nM | 3.59 nM | 24.3 nM
6 | Clc1cccc(-c2nnc(CNc3nc(N4CCOCC4)nc4c(Br)cnn34)[nH]2)c1 [Example 51, 8-bromo-N-{[5-(3-chlorophenyl)-4H-1,2,4-triazol-3-yl]methyl}-2-(morpholin-4-yl)pyrazolo[1,5-a][1,3,5]triazin-4-amine] | 7.81 nM | 222 | 5.8 nM | 3.15 nM | 9.43 nM
7 | Brc1cnn2c(NCc3nc4ccccc4[nH]3)nc(OC3CCNCC3)nc12 [Example 411, N-[(1H-benzimidazol-2-yl)methyl]-8-bromo-2-[(piperidin-4-yl)oxy]pyrazolo[1,5-a][1,3,5]triazin-4-amine] | 44.8 nM | >446 | – | 15.9 nM | 79 nM
8 | CN(CC(C)(C)O)c1nc(NCc2nc3c(F)c(F)ccc3[nH]2)n2ncc(C(F)(F)F)c2n1 [Example 402, 1-{[4-{[(4,5-difluoro-1H-benzimidazol-2-yl)methyl]amino}-8-(trifluoromethyl)pyrazolo[1,5-a][1,3,5]triazin-2-yl](methyl)amino}-2-methylpropan-2-ol] | 7.03 nM | 32 | 3.81 nM | 1.78 nM | 7.85 nM
9 | CC(C)c1cnn2c(NCc3nnc(-c4ccccc4)[nH]3)nc(N(C)CC(C)(C)O)nc12 [Example 39, 2-methyl-1-{methyl[4-{[(5-phenyl-4H-1,2,4-triazol-3-yl)methyl]amino}-8-(propan-2-yl)pyrazolo[1,5-a][1,3,5]triazin-2-yl]amino}propan-2-ol] | 41.4 nM | 113 | 92.3 nM | 8.13 nM | –
10 | CN1CCN(c2nc(NCc3nc4ccccc4[nH]3)n3ncc(C4CC4(F)F)c3n2)CC1 (stereo not drawn) [Example 428, N-(1H-benzimidazol-2-ylmethyl)-8-(2,2-difluorocyclopropyl)-2-(4-methylpiperazin-1-yl)pyrazolo[1,5-a][1,3,5]triazin-4-amine] | 7.03 nM | >2847 | – | 6.19 nM | 47.4 nM
11 | CN1CCN(c2nc(NCc3nc4ccccc4[nH]3)n3ncc(CC(F)(F)F)c3n2)CC1 [Example 436, N-[(1H-benzimidazol-2-yl)methyl]-2-(4-methylpiperazin-1-yl)-8-(2,2,2-trifluoroethyl)pyrazolo [1,5-a][1,3,5]triazin-4-amine] | 14.7 nM | >1357 | – | 15.9 nM | 108 nM
12 | Cn1cc(-c2cnn3c(NCc4nc5cc(Cl)c(Cl)cc5[nH]4)nc(N4CCOCC4)nc23)cn1 [Example 419, N-[(5,6-dichloro-1H-benzimidazol-2-yl)methyl]-8-(1-methyl-1H-pyrazol-4-yl)-2-(morpholin-4-yl)pyrazolo[1,5-a][1,3,5]triazin-4-amine] | 38.7 nM | >517 | – | 9.09 nM | 79.5 nM
13 | Cn1cc(-c2cnn3c(NCc4nc5c(F)c(F)ccc5[nH]4)nc(N4CCOCC4)nc23)cn1 [Example 418, N-[(4,5-difluoro-1H-benzimidazol-2-yl)methyl]-8-(1-methyl-1H-pyrazol-4-yl)-2-(morpholin-4-yl)pyrazolo[1,5-a][1,3,5]triazin-4-amine] | 39 nM | >513 | – | 2.4 nM | 64.4 nM
14 | CC(C)(O)COc1nc(NCc2nc3ccccc3[nH]2)n2ncc(Br)c2n1 [Example 398, 1-[(4-{[(1H-benzimidazol-2-yl)methyl]amino}-8-bromopyrazolo[1,5-a][1,3,5]triazin-2-yl)oxy]-2-methylpropan-2-ol] | 66.2 nM | 221 | – | 10.4 nM | 67.4 nM

Compounds with a lower DC50 [1], results first:

Row | DC50 [1] | (IC50 CDK12 high ATP) to (Degradation DC50 CDK12) ratio [1] | IC50 [2] | DC50 [3] | IC50 [4] | SMILES
15 | 3.39 nM | 829 | 4.17 nM | 1.74 nM | 7.02 nM | CCc1cnn2c(NCc3nc4ccccc4[nH]3)nc(N3CCOCC3)nc12 [Example 431, N-[(1H-benzimidazol-2-yl)methyl]-8-ethyl-2-(morpholin-4-yl)pyrazolo[1,5-a][1,3,5]triazin-4-amine]
16 | 1.55 nM | 669 | 1.52 nM | 0.189 nM | 3.14 nM | C[C@H]1COCCN1c1nc(NCc2nc3ccccc3[nH]2)n2ncc(Br)c2n1 [Example 57, N-[(1H-benzimidazol-2-yl)methyl]-8-bromo-2-[(3S)-3-methylmorpholin-4-yl]pyrazolo[1,5-a][1,3,5]triazin-4-amine]
17 | 4.23 nM | 941 | 2.21 nM | 2.22 nM | 5.31 nM | Clc1cc2nc(CNc3nc(N4CCOCC4)nc4c(-c5cncs5)cnn34)[nH]c2cc1Cl [Example 443, N-[(5,6-dichloro-1H-benzimidazol-2-yl)methyl]-2-(morpholin-4-yl)-8-(1,3-thiazol-5-yl)pyrazolo[1,5-a][1,3,5]triazin-4-amine]
18 | 1.71 nM | 871 | 2.95 nM | 2.58 nM | 1.46 nM | Fc1cccc(-c2nnc(CNc3nc(N4CCOCC4)nc4c(Br)cnn34)[nH]2)c1 [Example 44, 8-bromo-N-{[5-(3-fluorophenyl)-4H-1,2,4-triazol-3-yl]methyl}-2-(morpholin-4-yl)pyrazolo[1,5-a][1,3,5]triazin-4-amine]
19 | 1.76 nM | >11369 | 6.19 nM | 2.09 nM | 10.9 nM | CN1CCN(c2nc(NCc3nc4c(F)c(F)ccc4[nH]3)n3ncc(CC(F)(F)F)c3n2)CC1 [Example 437, N-[(4,5-difluoro-1H-benzimidazol-2-yl)methyl]-2-(4-methylpiperazin-1-yl)-8-(2,2,2-trifluoroethyl) pyrazolo[1,5-a][1,3,5]triazin-4-amine]
20 | 1.25 nM | 324 | 3.4 nM | 0.587 nM | 1.76 nM | N#Cc1cccc(-c2c[nH]c(CNc3nc(N4CCOCC4)nc4c(Br)cnn34)n2)c1 [Example 42, 3-[2-({[8-bromo-2-(morpholin-4-yl)pyrazolo[1,5-a][1,3,5]triazin-4-yl]amino}methyl)-1H-imidazol-4-yl]benzonitrile]

From patent US20230117034A1, “PYRAZOLOTRIAZINES” (Bayer Aktiengesellschaft, priority 2019, published 2023)
